From patent US8524634B2, “Seed treatment with combinations of pyrethrins/pyrethroids and clothianidin” (priority 2000, dated 2013)

Key:
Type in all cases: in vivo
corn plants = assay: Vigor rating of corn plants at 12 DAP as indication of phytotoxicity from seed or soil treatment (Reference Example 1); conditions: rating 1 extremely low vigor, 10 highest
Method: (§1) A lambda-cyhalothrin seed treatment formulation was prepared by diluting the WARRIOR® T insecticide (Zeneca Ag Products, Wilmington, Del.), which contains 11.4% lambda-cyhalothrin as the active ingredient, into water as a carrier. This formulation was applied for one minute at room temperature to twenty-five grams of Pioneer corn seed (Cultivar PN3394) in a rotostatic seed treater at a rate of 125 g, 250 g or 500 g active ingredient (Al) to 100 kg seed. The treated seeds were allowed to sit uncapped for four to twenty-four hours before planting.
(§2) Treated and untreated seeds (Pioneer hybrid PN3394) were planted in a soil mix consisting of Dupo silt loam, 30% Perlite, 20% coarse sand (WB-10 grade) in six groups of tubs (20 in. L×15 in. W×8 in. D). Twelve seeds were planted per tub and three tubs were planted for each treatment regimen. Soil applications of FORCE® 3GR, which contains 3% tefluthrin granule as the active ingredient, were used for two sets of tubs containing untreated seeds. The FORCE 3GR was applied either in-furrow or incorporated into a 5 inch band on the soil surface at the time of planting. The tubs were overhead irrigated until the plants were infested with black cutworm larvae.
At twelve days after planting (DAP) but before infestation, the overall health of each plant was rated by looking at emergence, height and appearance. This vigor rating gives an indication of any phytotoxicity from the seed or soil treatment. A rating of 1 indicates extremely low. vigor while 10 is the highest vigor rating.

black cutworm larvae [1] = assay: Black cutworm feeding damage on corn: lambda-cyhalothrin seed treatment vs tefluthrin soil granular treatments (Reference Example 1); conditions: for Plant Defol. 3 DAI / Plant Defol. 7 DAI / Plant Defol. 10 DAI: rating 1=no damage, 10=complete defoliation
Method: This example compares the efficacy of seed treatment with lambda-cyhalothrin (CAS #91465-08-6) to soil granular treatments with tefluthrin (CAS #79538-32-2) against feeding damage by black cutworm larvae on shoots and foliage.
as §1, §2
The rate of application for the FORCE 3GR was reported in units of grams of the active ingredient per hectare (g/ha), while the rate of application of the WARRIOR T to the seeds was reported in units of grams of the active ingredient per 100 kilograms of the seeds (g/100 kg). Although the conversion of one of these units to the other will vary somewhat according to the type of seed that is being used, the size and weight of the seed, and the density of planting that is used—among other things—an approximate conversion for corn seed can be carried out as follows. Assuming a seed application rate of lambda cyhalothrin of, for example, 125 g/100 kg of seed and a planting density of 15 lbs seed/ac, about 14.7 acres can be planted with 100 kg of the seed. This is an effective application rate of about 8.5 g of lambda cyhalthrin per acre. At 2.47 ac/ha, the seed treatment level of 125 g/100 kg is approximately equivalent to a surface banding treatment at about 21 g/ha.
The corn plants were infested at 12 DAP, which corresponds to late growth stage V1 by placing two black cutworm larvae at ¾ instar on the soil surface near the base of the plant. Plants were rated 3, 7 and 10 days after infestation (DAI) for the number of cut plants, as well as damage from leaf feeding. The percent stand reduction due to plant cutting was calculated by dividing the number of cut plants into the number of plants present at infestation. The foliar feeding injury was evaluated using a rating scale of 1=no damage and 10=complete defoliation.

black cutworm larvae [2] = assay: Protection of corn plants against black cutworm damage by seed treatment with tefluthrin, clothianidin and combinations; Colby synergy (Example 2); conditions: for STAND REDUCTION (% at 10 days): 10 DAI; for Percent of Control: stand reduction as percent of untreated control
Method: This example illustrates the efficacy of corn seed treatment with a combination of tefluthrin and clothianidin against plant damage by black cutworm.
Seed treatment formulations were prepared from RAZE® 2.5 FS formulation (available from Wilbur-Ellis Co.) containing 26.8% tefluthrin, and clothianidin, (E)-(N-[(2-chloro-5-thiazolyl)methyl]-N′-methyl-N″-nitroguanidine; CAS Registry number 210880-92-5. In addition, separate seed treatment formulations were prepared from each of the two insecticides alone. Corn seed was prepared and treated as described in Reference Example 1, except that the treatment levels of the active ingredients on the seeds was as shown in Table 3. Treated and untreated seeds were planted in tubs and cultivated as described in Example 1. The tubs were overhead irrigated until the plants were infested with black cutworm larvae.
The corn plants were infested at 12 DAP, as described in Reference Example 1, Plants were rated at 10 days after infestation (DAI) for the number of cut plants. The percent stand reduction due to plant cutting was calculated by dividing the number of cut plants into the number of plants present at infestation.
Whether a combination of insecticides provided synergy in protection against cutworm damage was calculated as described by Colby, Robert. S., in Weeds, 15(1):20-22 (1967). The threshold value (stated as % of control) for synergy of a combination was calculated as =(% of control for treatment A)*(% of control for treatment B)/100(n−1); where n=number of active ingredients in combination. A measured % of control value that is less than the threshold value indicates synergy of the combination. Threshold values for synergy were calculated for each of the combinations of Table 3, and the threshold values for synergy of combinations of the active ingredients at various levels are shown in Table 4.

[3] = seed treatment 125 g/100 kg seed
[4] = seed treatment 250 g/100 kg seed
[5] = seed treatment 500 g/100 kg seed

Structure (SMILES): Cc1c(F)c(F)c(COC(=O)[C@@H]2[C@H](/C=C(\Cl)C(F)(F)F)C2(C)C)c(F)c1F (racemic) [Tefluthrin, (2,3,5,6-tetrafluoro-4-methylphenyl)-methyl-(1 alpha, 3 alpha)-(Z)-(±)-3-(2-chloro-3,3,3-trifluoro-1-propenyl)-2,2-dimethylcyclopropanecarboxylate]
- Vigor at 12 DAP (corn plants; soil granule (FORCE 3GR) banded 30 g/ha): 8.7
- Vigor at 12 DAP (corn plants; soil granule (FORCE 3GR) in-furrow 30 g/ha): 9.0
- Plant Defol. 3 DAI (black cutworm larvae [1]; banded 30 g/ha (FORCE 3GR)): 1.7
- % Stand Reduct'n 7 DAI (black cutworm larvae [1]; banded 30 g/ha (FORCE 3GR)): 0.0%
- Plant Defol. 7 DAI (black cutworm larvae [1]; banded 30 g/ha (FORCE 3GR)): 1.7
- % Stand Reduct'n 10 DAI (black cutworm larvae [1]; banded 30 g/ha (FORCE 3GR)): 0.0%
- Plant Defol. 10 DAI (black cutworm larvae [1]; banded 30 g/ha (FORCE 3GR)): 0.3
- % Stand Reduct'n 3 DAI (black cutworm larvae [1]; banded 30 g/ha (FORCE 3GR, 5 inch soil surface band)): 0.0%
- Plant Defol. 3 DAI (black cutworm larvae [1]; in-furrow 30 g/ha (FORCE 3GR)): 5.0
- % Stand Reduct'n 7 DAI (black cutworm larvae [1]; in-furrow 30 g/ha (FORCE 3GR)): 48.0%
- Plant Defol. 7 DAI (black cutworm larvae [1]; in-furrow 30 g/ha (FORCE 3GR)): 6.0
- % Stand Reduct'n 10 DAI (black cutworm larvae [1]; in-furrow 30 g/ha (FORCE 3GR)): 48.0%
- Plant Defol. 10 DAI (black cutworm larvae [1]; in-furrow 30 g/ha (FORCE 3GR)): 5.3

Structure (SMILES): CN/C(=N\[N+](=O)[O-])NCc1cnc(Cl)s1 [Clothianidin, (E)-1-(2-chloro-1,3-thiazol-5-ylmethyl)-3-methyl-2-nitroguanidine]
- STAND REDUCTION (% at 10 days) (black cutworm larvae [2]; seed treatment clothianidin 50 gm/100 kg seed): 61.15%
- STAND REDUCTION (% at 10 days) (black cutworm larvae [2]; seed treatment clothianidin 100 gm/100 kg seed): 34.38%
- Percent of Control (black cutworm larvae [2]; clothianidin 50 gm/100 kg seed): 61.2%
- Percent of Control (black cutworm larvae [2]; clothianidin 100 gm/100 kg seed): 34.4%

Structure (SMILES): CC1(C)[C@H](C(=O)O[C@H](C#N)c2cccc(Oc3ccccc3)c2)[C@@H]1/C=C(\Cl)C(F)(F)F [λ-cyhalothrin, [1 alpha (s), 3 alpha(z)]-cyano(3-phenoxyphenyl)methyl-3-(2-chloro-3,3,3-trifluoro-1-propenyl)-2,2-dimethylcyclopropane carboxylate]
- Vigor at 12 DAP (corn plants; seed treatment 125 g AI/100 kg corn seed): 9.0
- Vigor at 12 DAP (corn plants; seed treatment 250 g AI/100 kg corn seed): 8.3
- Vigor at 12 DAP (corn plants; seed treatment 500 g AI/100 kg corn seed): 8.3
- Plant Defol. 3 DAI (black cutworm larvae [1]; [3]): 4.3
- Plant Defol. 7 DAI (black cutworm larvae [1]; [3]): 5.0
- Plant Defol. 10 DAI (black cutworm larvae [1]; [3]): 3.3
- % Stand Reduct'n 3 DAI (black cutworm larvae [1]; [4]): 3.0%
- Plant Defol. 3 DAI (black cutworm larvae [1]; [4]): 3.7
- % Stand Reduct'n 7 DAI (black cutworm larvae [1]; [4]): 3.0%
- % Stand Reduct'n 7 DAI (black cutworm larvae [1]; seed treatment 250 g/100 kg seed, listed as lambda-cyhalothrin): 3%
- Plant Defol. 7 DAI (black cutworm larvae [1]; [4]): 2.7
- % Stand Reduct'n 10 DAI (black cutworm larvae [1]; [4]): 3.0%
- Plant Defol. 10 DAI (black cutworm larvae [1]; [4]): 1.7
- % Stand Reduct'n 3 DAI (black cutworm larvae [1]; [5]): 0.0%
- Plant Defol. 3 DAI (black cutworm larvae [1]; [5]): 2.0
- % Stand Reduct'n 7 DAI (black cutworm larvae [1]; [5]): 0.0%
- % Stand Reduct'n 7 DAI (black cutworm larvae [1]; seed treatment 500 g/100 kg seed, listed as lambda-cyhalothrin): 0%
- Plant Defol. 7 DAI (black cutworm larvae [1]; [5]): 2.3
- % Stand Reduct'n 10 DAI (black cutworm larvae [1]; [5]): 0.0%
- Plant Defol. 10 DAI (black cutworm larvae [1]; [5]): 1.0
